From article PMC10397409, “The action of physiological and synthetic steroids on the calcium channel CatSper in human sperm” (Frontiers in Cell and Developmental Biology, 2023)
Values joined by “and” are separate entries in the source; they are usually repeats but may differ in a detail not shown here. Identical values can stand only once. Like-named read-outs stand apart in the source and are kept apart here.

Tests used:
CatSper [1] = target: T1, CatSper (Homo sapiens, UniProt Q7RTX7+Q86XQ3+Q8NEC5+Q96P56); assay: Steroid-induced increase in [Ca2+]i in human sperm (Fluo-4 HTS assay, screen 1 activators); type: cell-based; conditions: for Emax: read-out: Max amplitude (%) (± SD)
T1 construct: Motile spermatozoa were selected by a ‘swim-up’ procedure; endogenous in cells; host or cells: motile human spermatozoa (swim-up) from healthy donors
Description: (§1) Briefly, motile spermatozoa were selected by swim-up and labeled with the fluorescent calcium indicator Fluo-4 a.m. to image changes in [Ca^2+]i. After centrifugation to remove excess dye, Fluo-4 AM loaded cells were distributed in a 384-wells plate to obtain ∼125,000 cells/well. After measuring basal fluorescence, a first injection of compounds was performed in order to evaluate their effect on [Ca^2+]i alone. This first screen is therefore considered as a screen to search for ‘activators’. Fluorescence was recorded for 12 min during which sperm cells were continuously exposed to compounds. P4 or PGE1 were then added in the same wells to evaluate whether the tested compounds can reduce the ligand-induced activation of CatSper. This second screen was therefore considered to be a search for CatSper ‘inhibitors’.
Human semen samples were collected from healthy donors by masturbation after a recommended sexual abstinence period of minimum 2 days. Semen samples were allowed to liquefy at 37°C for 15–30 min. […] Motile sperm were allowed to swim at 37°C for 1 hour. The supernatant was collected in 15 mL Falcon tubes and washed twice by centrifugation at 700 x g for 20 min. Sperm were supplemented with 3 mg/mL HSA.
20 μL of cells (corresponding to ∼125,000 cells) loaded with Fluo-4 a.m. were dispensed in a 384-wells plate (Corning, NY, United States) to allow fluorescence measurement. The dye was excited at 480 nm, and emission was recorded at 530 nm. The change in [Ca^2+]i was assessed simultaneously in all wells using a Functional Drug Screening System (FDSS/μCELL) (Hamamatsu Phototonics K.K., Yokohama, Japan) at 37°C. Basal fluorescence was first measured for 30 s. […] P4 and PGE1 were tested at a near-saturating concentration in the HTS in order to evaluate a potential additive or synergistic effect induced by the compounds. […] For alkalization-induced Ca^2+ measurement, NH4Cl was used as a positive control at a final concentration of 10 mM. […] The Prestwick library was tested in technical duplicate. Ca^2+ response curves were normalized using the following formula F−F0/F0×100 , where F 0 is the average of the basal fluorescence prior to the addition of the compound of interest and F corresponds to the fluorescence value at each time point. The ∆F/F0 of the vehicle control (DMSO) was subtracted from all the other values to adjust for dilution and pipetting artifacts. The values of all compounds were normalized to their respective controls.
Data are shown as mean ± standard deviation (SD) with “n” referring to the number of independent experiments performed using sperm samples from ≥3 different donors. Statistical analysis and fitting of dose-response relations were performed using GraphPad Prism 8.1.1 (Prism, La Jolla, United States). To generate sigmoidal curves, the concentrations were converted to their respective log values, and the data were normalized using the following formula: 100⋅x/Fmax , where Fmax is the maximum value of the positive control. A four-parameter Hill equation with a variable Hill coefficient was fitted to generate the EC02, EC50, and IC50. Statistical significance between control and treated conditions was evaluated using a one-way analysis of variance (ANOVA), followed by Dunnett´s test. A p-value <0.05 was considered significant.

CatSper [2] = target: T1, CatSper; assay: Inhibition of P4-induced Ca2+ influx in human sperm (screen 2 inhibitors); type: cell-based
Description: as §1
Human semen samples were collected from healthy donors by masturbation after a recommended sexual abstinence period of minimum 2 days. Semen samples were allowed to liquefy at 37°C for 15–30 min. Motile spermatozoa were selected by a ‘swim-up’ procedure as previously described ([Strünker et al., 2011]). Briefly, 1 mL of semen was deposited in a 45°-inclined 50 mL Falcon tube with 4 mL of Human Tubular Fluid (HTF) medium containing: 93.8 mM NaCl, 4.7 mM KCl, 0.2 mM MgSO4, 0.37 mM KH2PO4, 2.04 mM CaCl2, 20.98 mM HEPES, 2.78 mM glucose, 21.4 mM Na-lactate, 4 mM NaHCO3, 0.33 mM Na-pyruvate, and the pH was adjusted to 7.35. Motile sperm were allowed to swim at 37°C for 1 hour. The supernatant was collected in 15 mL Falcon tubes and washed twice by centrifugation at 700 x g for 20 min. Sperm were supplemented with 3 mg/mL HSA. Written informed consent was obtained from all donors prior to donation and approved by the Cantonal Ethics Committee of the State of Geneva (CCER #14-147).
Cells were loaded with the fluorescent Ca^2+ indicator Fluo-4 AM at a final concentration of 2.5 µM for 30 min at 37°C. Excess dye was washed via centrifugation at 700 x g for 20 min and sperm were resuspended in HTF medium to obtain a final concentration of 6.25 x 10^6 cells/mL. 20 μL of cells (corresponding to ∼125,000 cells) loaded with Fluo-4 a.m. were dispensed in a 384-wells plate (Corning, NY, United States) to allow fluorescence measurement. The dye was excited at 480 nm, and emission was recorded at 530 nm. The change in [Ca^2+]i was assessed simultaneously in all wells using a Functional Drug Screening System (FDSS/μCELL) (Hamamatsu Phototonics K.K., Yokohama, Japan) at 37°C. Basal fluorescence was first measured for 30 s. […] P4 and PGE1 were tested at a near-saturating concentration in the HTS in order to evaluate a potential additive or synergistic effect induced by the compounds. Non-specific CatSper inhibitor MDL 12330A was used as a negative control at final concentration of 20 µM while DMSO was used as a vehicle control. For alkalization-induced Ca^2+ measurement, NH4Cl was used as a positive control at a final concentration of 10 mM. Fluorescence was recorded for a total of 16.5 min: 30 s before injection, 12 min after the first injection of the tested compounds, and 4 min after the second injection of either P4 or PGE1. The Prestwick library was tested in technical duplicate. Ca^2+ response curves were normalized using the following formula F−F0/F0×100 , where F 0 is the average of the basal fluorescence prior to the addition of the compound of interest and F corresponds to the fluorescence value at each time point. The ∆F/F0 of the vehicle control (DMSO) was subtracted from all the other values to adjust for dilution and pipetting artifacts. The values of all compounds were normalized to their respective controls.

[3] = maximal amplitude of steroid-induced [Ca2+]i increase, relative to P4, 3 independent experiments
[4] = pooled from 3 independent experiments, read-out: Mean EC50 µM (±SD)
[5] = P4-induced response, pooled from 3 independent experiments, read-out: Mean IC50 (P4) µM (±SD)
[6] = EC50 (±SD), increase in [Ca2+]i, dose-response 90 µM to 0.3 nM
[7] = Mean EC50 µM (±SD), pooled from 3 independent experiments
[8] = IC50 (±SD), inhibition of P4-induced Ca2+ response, dose-response 90 µM to 0.3 nM
[9] = Mean IC50 (P4) µM (±SD), P4-induced response, pooled from 3 independent experiments

Structure (SMILES) | Emax (CatSper [1]; [3]) [%] | EC50 (CatSper [1]; [4]) [µM] | Max P4 inhibition (%) (± SD) (CatSper [2]; 3 independent experiments) | IC50 (CatSper [2]; [5]) [µM] | Emax (CatSper [1]) [%] | other results
C#C[C@]1(OC(C)=O)CC[C@H]2[C@@H]3CCC4=CC(=NO)CC[C@@H]4[C@H]3CC[C@@]21CC (mixture of isomers) [norgestimate] | 79 | 0.918 | 53 (±5) % | 8.05 |  | 
C[C@]12CC[C@@H](O)C[C@H]1CC[C@@H]1[C@@H]2CC[C@]2(C)C(=O)CC[C@@H]12 [3-alpha-hydroxy-5-beta-androstan-17-one] |  | 0.915 | 66 (±2) % | 1.52 |  | Max amplitude (%) (± SD) (CatSper [1]; [3]): 66 (±2) %
C[C@]12CC[C@H]3[C@@H](CCC4=CC(=O)CC[C@@]43C)[C@@H]1CC[C@@H]2C(=O)CO [Deoxycorticosterone] |  |  | 86 (±3) % |  | 94 | EC50 (CatSper [1]; [6]): 0.302 µM; EC50 (CatSper [1]; EC50, increase in [Ca2+]i): 0.3 µM; EC50 (CatSper [1]; [7]): 0.295 µM; reduction of the P4 response (CatSper [2]): more than 86%; IC50 (CatSper [2]; [8]): 0.523 µM; IC50 (CatSper [2]; IC50, reduction of P4 response): 0.5 µM
CC(=O)[C@H]1CC[C@H]2[C@@H]3C[C@H](C)C4=CC(=O)CC[C@]4(C)[C@H]3[C@@H](O)C[C@]12C [Medrysone] | 104 | 0.23 | 83 (±4) % | 0.471 |  | EC50 (CatSper [1]; increase in [Ca2+]i, dose-response 90 µM to 0.3 nM, read-out: EC50 (±SD)): 0.24 µM; IC50 (CatSper [2]; inhibition of P4-induced Ca2+ response, dose-response 90 µM to 0.3 nM, read-out: IC50 (±SD)): 0.569 µM
C[C@]12CC[C@H]3[C@@H](CCC4=CC(=O)CC[C@@H]43)[C@@H]1CC[C@@H]2O [Nandrolone] |  |  | 85 (±1) % |  | 98 | EC02 compared with reported maximum concentration in blood serum (CatSper [1]): EC02 below the reported maximum concentration found in blood serum; EC50 (CatSper [1]; [6]): 0.306 µM; increase in [Ca2+]i (CatSper [1]; at low concentrations in the nanomolar range): 30%; IC50 (CatSper [2]; [8]): 0.711 µM; IC50 (CatSper [2]; [9]): 0.729 µM
CC(=O)C1CCC2C3CC[C@H]4CC(=O)CC[C@]4(C)C3CC[C@]12C (stereo partly drawn) [S46] |  |  | 90 (±6) % |  | 141 | EC50 (CatSper [1]; EC50, increase in [Ca2+]i in human sperm): 0.032 µM and 0.073 µM; IC50 (CatSper [2]; IC50, decrease of response to P4): 0.046 µM and 0.138 µM
CC12CCC(O)CC1CCC1C2CCC2(C)C1CCC2(C)O (stereo not drawn) [S64] |  |  | 55 (±1) % |  | 65 | EC50 (CatSper [1]; [7]): 0.265 µM; IC50 (CatSper [2]; [9]): 0.682 µM
CC12CCC3C(CC[C@H]4CC(=O)CCC34C)C1CCC2O (stereo partly drawn) [S65] |  |  | 95 (±1) % |  | 91 | 
CC12CCC(O)CC1=CCC1C2CCC2(C)C(C(=O)O)CCC12 (stereo not drawn) [S67] |  |  | 86 (±3) % |  | 80 | EC50 (CatSper [1]; [7]): 0.108 µM; IC50 (CatSper [2]; [9]): 0.253 µM
C[C@]12CC[C@H]3[C@@H](CC[C@H]4C[C@H](O)CC[C@@H]43)[C@@H]1CCC2=O [S85] |  |  | 96 (±2) % |  | 99 | EC50 (CatSper [1]; [7]): 0.259 µM; IC50 (CatSper [2]; [9]): 0.495 µM
C[C@]12CC[C@H]3[C@@H](CCC4=CC(=O)CC[C@@]43C)[C@@H]1CC[C@@H]2O [Testosterone] |  |  | 81 (±6) % |  | 87 | EC50 (CatSper [1]; [6]): 0.407 µM; IC50 (CatSper [2]; [9]): 1.09 µM
C[C@]12CCC(=O)C=C1CC[C@@H]1[C@@H]2C(=O)C[C@]2(C)C(=O)CC[C@@H]12 [adrenosterone] |  | 14.5 | 24 (±3) % | 30.8 |  | Max amplitude (%) (± SD) (CatSper [1]; [3]): 26 (±2) %
C[C@]12CCC(=O)C=C1C=C[C@@H]1[C@@H]2CC[C@@]2(C)[C@H]1CC[C@@]21CCC(=O)O1 [canrenone] | 69 | 7.51 | 49 (±1) % |  |  | 
C[C@]12C[C@H](O)[C@H]3[C@@H](CCC4=CC(=O)CC[C@@]43C)[C@@H]1CC[C@@H]2C(=O)CO [corticosterone] | 55 | 2.94 | 49 (±5) % | 6.1 |  | 
C[C@]12CC[C@H]3C(=CCc4cc(O)ccc43)[C@@H]1CCC2=O [equilin] |  |  |  |  | 62 | EC50 (CatSper [1]): 0.999 µM; IC50 (CatSper [2]): 1.85 µM; Max P4 inhibition (%) (± SD) (CatSper [2]): 50 (±11) %
C[C@]12CC[C@@H]3c4ccc(O)cc4CC[C@H]3[C@@H]1CC[C@@H]2O [estradiol-17 beta] |  | 0.761 | 67 (±3) % | 1.45 |  | Max amplitude (%) (± SD) (CatSper [1]; [3]): 75 (±8) %
C[C@]12CC[C@@H]3c4ccc(O)cc4CC[C@H]3[C@@H]1CCC2=O [estrone] | 49 |  | 67 (±2) % |  |  | EC50 (CatSper [1]; [7]): 0.267 µM; IC50 (CatSper [2]; [9]): 0.56 µM
C#C[C@]1(O)CC[C@H]2[C@@H]3CCC4=CC(=O)CC[C@]4(C)[C@H]3CC[C@@]21C [ethisterone] |  |  | 10 (±9) % | 5.13 | 8 | 
C#C[C@]1(O)CC[C@H]2[C@@H]3CCc4cc(OC)ccc4[C@H]3CC[C@@]21C [ethynylestradiol 3-methyl ether] | 9 |  | 4 (±3) % |  |  | 
C=C1C[C@@H]2[C@H](CC[C@]3(C)C(=O)CC[C@@H]23)[C@@]2(C)C=CC(=O)C=C12 [exemestane] |  | 0.557 |  | 0.309 | 63 | Max P4 inhibition (%) (± SD) (CatSper [2]): 56 (±2) %
CC(=O)[C@@]1(O)CC[C@H]2[C@@H]3C[C@H](C)C4=CC(=O)C=C[C@]4(C)[C@@]3(F)[C@@H](O)C[C@@]21C [fluorometholone] | 42 | 0.702 | 29 (±12) % | 6.51 |  | 
